From ChEMBL document CHEMBL4390688, “Accelerating the discovery of DGAT1 inhibitors through the application of parallel medicinal chemistry (PMC)” (Bioorg Med Chem Lett, 2019) come the findings set out here.

For series [1], the target named is Voltage-gated inwardly rectifying potassium channel KCNH2 (Homo sapiens, UniProt Q12809). In words: Inhibition of human ERG.
Series [2] has as its target Adenosine receptor A2a (Homo sapiens, UniProt P29274). The series is described as follows: Activity against human A2AR assessed as inhibition of cAMP accumulation by cAMP functional assay.
Series [3] concerns Mus musculus. In words: Reduction in lipid excursion in mouse at 3 mg/kg, po administered as single dose measured after 18 hrs by lipid tolerance test relative to control. The series is classed as functional. Also on record: scale not given: the % may be the effect or the level left.
Series [4] can be described thus: Oral bioavailability in Sprague-Dawley rat at 2 mg/kg. Format: ADME, organism-based. Conditions: in vivo.
Series [5] can be described thus: Clearance in Sprague-Dawley rat at 1 mg/kg, iv and 2 mg/kg, po. Format: ADME, organism-based. Conditions: in vivo.
The nature of series [6]: Volume of distribution at steady state in Sprague-Dawley rat at 1 mg/kg, iv or 2 mg/kg, po. The series is classed as ADME, organism-based. The conditions noted are these: in vivo, read-out: Vdss.
Series [7] in a line: Half life in Sprague-Dawley rat at 1 mg/kg, iv or 2 mg/kg, po. The conditions noted are these: in vivo. The series is classed as ADME, organism-based.
Series [8] in a line: Cmax in Sprague-Dawley rat at 1 mg/kg, iv or 2 mg/kg, po. Format: ADME, organism-based. The conditions noted are these: in vivo.
Series [9] is described as follows: Tmax in Sprague-Dawley rat at 1 mg/kg, iv or 2 mg/kg, po. The series is classed as ADME, organism-based. Conditions: in vivo.
Series [10] is described as follows: Dose normalized AUC in Sprague-Dawley rat at 1 mg/kg, iv or 2 mg/kg, po. The series is classed as ADME, organism-based. The conditions noted are these: in vivo.
Series [11] in a line: Oral bioavailability in Beagle dog at 2 mg/kg. The series is classed as ADME, organism-based, Canis lupus familiaris. The conditions noted are these: in vivo.
The nature of series [12]: Clearance in Beagle dog at 1 mg/kg, iv or 2 mg/kg, po. Format: ADME, organism-based, Canis lupus familiaris. The conditions noted are these: in vivo.
Series [13] is described as follows: Volume of distribution at steady state in Beagle dog at 1 mg/kg, iv or 2 mg/kg, po. The conditions noted are these: in vivo, read-out: Vdss. The series is classed as ADME, organism-based, Canis lupus familiaris.
Series [14] in a line: Half life in Beagle dog at 1 mg/kg, iv or 2 mg/kg, po. The series is classed as ADME, organism-based, Canis lupus familiaris. The conditions noted are these: in vivo.
Series [15] can be described thus: Cmax in Beagle dog at 1 mg/kg, iv or 2 mg/kg, po. The series is classed as ADME, organism-based, Canis lupus familiaris. Conditions: in vivo.
Series [16] can be described thus: Tmax in Beagle dog at 1 mg/kg, iv or 2 mg/kg, po. Format: ADME, organism-based, Canis lupus familiaris. The conditions noted are these: in vivo.
A short description of series [17]: Dose normalized AUC in Beagle dog at 1 mg/kg, iv or 2 mg/kg, po. The series is classed as ADME, organism-based, Canis lupus familiaris. The conditions noted are these: in vivo.
The nature of series [18]: Mutagenicity in Salmonella typhimurium […] up to 30 to 5000 ug/plate by Ames test. Format: toxicity. The conditions noted are these: salmonella enterica subsp. enterica serovar typhimurium.
Series [19] in a line: Mutagenicity in Salmonella typhimurium TA98 up to 30 to 5000 ug/plate by Ames test. The series is classed as toxicity. The conditions noted are these: salmonella enterica subsp. enterica serovar typhimurium.
The nature of series [20]: Mutagenicity in Salmonella typhimurium TA100 up to 30 to 5000 ug/plate by Ames test. Conditions: salmonella enterica subsp. enterica serovar typhimurium. The series is classed as toxicity. Background: The Ames test uses bacterial strains that need an amino acid and regain growth without it when mutated back.
For series [21], the system named is Canis familiaris. In words: Reduction in lipid excursion in dog at 1 mg/kg, po measured by lipid tolerance test relative to control. The series is classed as functional, Canis lupus familiaris. Also on record: scale not given: the % may be the effect or the level left.
In series [22] the target is T1, Diacylglycerol O-acyltransferase 1 (Homo sapiens, UniProt O75907).
T1 sequence (O75907 whole entry): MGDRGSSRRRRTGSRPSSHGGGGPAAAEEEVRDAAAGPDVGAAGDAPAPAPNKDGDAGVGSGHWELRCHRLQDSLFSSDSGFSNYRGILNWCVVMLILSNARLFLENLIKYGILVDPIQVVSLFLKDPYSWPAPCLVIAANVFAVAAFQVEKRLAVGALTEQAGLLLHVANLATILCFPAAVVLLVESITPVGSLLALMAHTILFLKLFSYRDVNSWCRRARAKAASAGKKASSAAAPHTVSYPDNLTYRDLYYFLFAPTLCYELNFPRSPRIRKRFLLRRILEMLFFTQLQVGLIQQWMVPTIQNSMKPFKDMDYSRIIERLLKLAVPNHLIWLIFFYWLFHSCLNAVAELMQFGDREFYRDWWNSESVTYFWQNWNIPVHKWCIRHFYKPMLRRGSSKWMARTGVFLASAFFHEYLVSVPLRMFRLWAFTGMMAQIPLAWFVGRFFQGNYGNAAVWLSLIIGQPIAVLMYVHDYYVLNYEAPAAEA
Description: Inhibition of human DGAT1

Series [23] deals with T2, Diacylglycerol O-acyltransferase 1 (Mus musculus, UniProt Q9Z2A7).
T2 sequence (Q9Z2A7 whole entry): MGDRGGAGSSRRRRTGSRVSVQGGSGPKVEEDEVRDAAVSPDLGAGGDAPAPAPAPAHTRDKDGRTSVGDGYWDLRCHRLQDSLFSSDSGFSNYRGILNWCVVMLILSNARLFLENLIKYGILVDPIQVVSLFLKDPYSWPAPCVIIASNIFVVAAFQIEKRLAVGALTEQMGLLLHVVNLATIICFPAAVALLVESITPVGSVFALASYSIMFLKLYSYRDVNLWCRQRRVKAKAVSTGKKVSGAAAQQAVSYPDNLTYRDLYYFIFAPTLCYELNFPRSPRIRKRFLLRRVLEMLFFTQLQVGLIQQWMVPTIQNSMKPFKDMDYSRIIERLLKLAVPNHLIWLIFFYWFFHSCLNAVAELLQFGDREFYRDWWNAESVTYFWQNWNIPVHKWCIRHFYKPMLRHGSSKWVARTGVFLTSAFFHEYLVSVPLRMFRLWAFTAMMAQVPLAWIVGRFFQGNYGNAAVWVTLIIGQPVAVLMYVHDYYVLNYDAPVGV
Description: Inhibition of mouse DGAT1

The target of series [24] is T3, Sterol O-acyltransferase 1 (Homo sapiens, UniProt P35610).
T3 sequence (P35610 whole entry): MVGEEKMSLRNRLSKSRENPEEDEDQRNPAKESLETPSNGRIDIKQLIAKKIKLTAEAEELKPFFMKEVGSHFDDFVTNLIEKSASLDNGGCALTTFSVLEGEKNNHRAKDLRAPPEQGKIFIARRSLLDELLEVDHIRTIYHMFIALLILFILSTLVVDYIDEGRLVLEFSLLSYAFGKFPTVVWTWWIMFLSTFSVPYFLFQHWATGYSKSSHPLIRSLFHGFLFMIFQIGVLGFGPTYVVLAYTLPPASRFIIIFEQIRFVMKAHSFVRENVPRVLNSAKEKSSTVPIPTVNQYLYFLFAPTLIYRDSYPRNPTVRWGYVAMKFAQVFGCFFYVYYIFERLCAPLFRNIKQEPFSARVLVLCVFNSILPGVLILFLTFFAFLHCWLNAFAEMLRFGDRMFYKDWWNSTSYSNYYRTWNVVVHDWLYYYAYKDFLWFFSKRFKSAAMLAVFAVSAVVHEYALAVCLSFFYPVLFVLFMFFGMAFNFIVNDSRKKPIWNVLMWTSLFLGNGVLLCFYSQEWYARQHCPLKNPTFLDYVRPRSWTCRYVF
Description: Inhibition of human ACAT1

Each structure is given as a SMILES string. pIC50, pKi: −log10 of the molar value.

Voltage-gated inwardly rectifying potassium channel KCNH2, sequence (Q12809 whole entry): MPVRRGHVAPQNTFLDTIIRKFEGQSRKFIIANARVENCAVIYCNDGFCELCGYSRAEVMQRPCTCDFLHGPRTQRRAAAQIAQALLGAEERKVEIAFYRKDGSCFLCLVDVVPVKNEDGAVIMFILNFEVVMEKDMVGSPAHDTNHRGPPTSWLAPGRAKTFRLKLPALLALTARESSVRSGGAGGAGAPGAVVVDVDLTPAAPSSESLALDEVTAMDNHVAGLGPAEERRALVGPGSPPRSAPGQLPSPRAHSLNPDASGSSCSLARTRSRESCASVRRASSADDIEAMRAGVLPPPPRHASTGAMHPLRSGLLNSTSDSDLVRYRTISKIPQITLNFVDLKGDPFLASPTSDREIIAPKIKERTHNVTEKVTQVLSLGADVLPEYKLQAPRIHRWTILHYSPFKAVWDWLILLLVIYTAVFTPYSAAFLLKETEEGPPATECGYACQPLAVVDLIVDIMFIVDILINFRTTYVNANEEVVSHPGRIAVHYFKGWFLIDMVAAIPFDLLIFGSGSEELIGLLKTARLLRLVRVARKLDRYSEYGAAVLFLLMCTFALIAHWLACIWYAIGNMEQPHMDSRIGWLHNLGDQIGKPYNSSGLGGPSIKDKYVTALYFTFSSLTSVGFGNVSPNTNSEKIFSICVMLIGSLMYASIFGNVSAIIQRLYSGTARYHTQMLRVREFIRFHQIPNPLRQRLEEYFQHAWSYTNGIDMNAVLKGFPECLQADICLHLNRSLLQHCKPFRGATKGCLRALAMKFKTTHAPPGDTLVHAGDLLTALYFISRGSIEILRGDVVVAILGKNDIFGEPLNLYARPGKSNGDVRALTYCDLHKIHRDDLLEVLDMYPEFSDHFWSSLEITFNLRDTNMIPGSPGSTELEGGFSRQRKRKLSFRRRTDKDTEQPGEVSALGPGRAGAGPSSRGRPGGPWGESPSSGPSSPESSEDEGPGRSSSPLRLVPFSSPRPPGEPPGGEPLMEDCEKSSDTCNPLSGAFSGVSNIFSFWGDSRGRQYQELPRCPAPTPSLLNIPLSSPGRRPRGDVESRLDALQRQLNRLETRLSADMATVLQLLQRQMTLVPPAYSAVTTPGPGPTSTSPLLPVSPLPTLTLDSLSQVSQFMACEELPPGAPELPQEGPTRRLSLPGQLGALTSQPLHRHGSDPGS
Adenosine receptor A2a, sequence (P29274 whole entry): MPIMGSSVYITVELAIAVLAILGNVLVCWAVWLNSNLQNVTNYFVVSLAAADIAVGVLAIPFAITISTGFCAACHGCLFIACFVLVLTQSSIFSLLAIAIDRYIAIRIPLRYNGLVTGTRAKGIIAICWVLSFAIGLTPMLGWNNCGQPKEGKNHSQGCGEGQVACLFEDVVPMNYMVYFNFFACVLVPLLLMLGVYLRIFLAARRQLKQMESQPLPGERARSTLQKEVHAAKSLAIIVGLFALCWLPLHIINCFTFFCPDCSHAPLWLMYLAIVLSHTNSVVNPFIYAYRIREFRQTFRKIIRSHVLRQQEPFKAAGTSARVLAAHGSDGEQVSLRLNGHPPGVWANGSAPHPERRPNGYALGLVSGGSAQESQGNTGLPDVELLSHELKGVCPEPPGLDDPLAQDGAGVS

`O=C(O)C[C@H]1CC[C@H](OC2CCN(c3ccc(-c4nc5cc(F)c(F)cc5[nH]4)cn3)CC2)CC1`: the pKi in series [1] is 4.39. For the same compound, the negative logarithm of the IC50 (pIC50) in series [2] is 5.46; in series [22], 8.19; in [23], 7.34; in [24], less than 5.00. The Activity in [3] was 84%; in [18] it was “Non-Toxic”; in series [19], “Non-Toxic”; in [20], “Non-Toxic”; in series [21], 100%. The results for the bioavailability in series [4] and in series [11] were 17% and 40%, respectively. Besides, the clearance is 17 mL/min/kg in series [5] and 3.4 mL/min/kg in series [12]. For the same compound, the Vd was determined as 1.08 L/kg in series [6] and 0.81 L/kg in [13]. The half-life in [7] is 1 h; in [14], 3.2 h. In addition, the Cmax in series [8] was 230 nM; in [15], 2400 nM. Moreover, the results for the Tmax in series [9] and in [16] were 1 h and 0.5 h, respectively. For the same compound, the AUC/dose in series [10] was found to be 0.3 µM·h/mg/kg; in series [17] it was 4.1 µM·h/mg/kg.

By pKi is commonly meant −log10 of the Ki, conventionally taken in molar units. As a reminder, the pIC50 is the IC50 on a negative log10 scale, so that one unit is a factor of ten. The bioavailability is the share of a dose that reaches the circulation, judged against a reference dose that is usually intravenous. For orientation: half-life means how long it takes for the measured level to halve. Usually Cmax stands for the highest concentration seen after dosing. The Tmax is the time at which the peak concentration occurs.
